From US9445594B2, “Molecules having certain pesticidal utilities, intermediates, compositions, and processes, related thereto” (priority 2014, dated 2016) come the findings set out here.

Common to all, as to type: in vivo
Data set [1] relates to Beet Armyworm (Spodoptera exigua, LAPHEG) ("BAW"). Nature of the data set: Bioassays on BAW, 128-well diet tray assay. To be noted: 168 h, second instar larvae, 50 μg/cm^2 on artificial diet, 25° C., five to seven days, average of eight wells, read-out: BAW % Control (or Mortality) rating. An outline of the steps:
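One to five second-instar larvae were placed per well on artificial diet surface-treated with 50 μg/cm^2 compound from 90:10 acetone-water, dried before infestation. Trays were held at 25 °C, 14:10 light-dark, for five to seven days. Percent mortality was averaged over eight wells.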

Data set [2] relates to Yellow Fever Mosquito (Aedes aegypti, AEDSAE) ("YFM"). Description: Bioassays on YFM, 96-well plate larval assay. The conditions noted are these: about 1 day-old larvae, from 4000 ppm DMSO master plate diluted, room temperature, scored after 3 days. An outline of the steps:
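Compounds from 4000 ppm DMSO master plates, diluted in 90:10 water:acetone, dispensed into 96-well plates, six replicates. About 1-day-old larvae added in liver-powder water. Wells covered, held 3 days at room temperature, then scored for mortality.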

Data set [3] has as its system Cabbage Looper (Trichoplusia ni, TRIPNI) ("CL"). Nature of the data set: Bioassays on CL, 128-well diet tray assay. The conditions noted are these: 168 h, second instar larvae, 50 μg/cm^2 on artificial diet, 25° C., five to seven days, average of eight wells, read-out: CL % Control (or Mortality) rating. An outline of the steps:
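Second-instar larvae (one to five per well) on artificial diet surface-treated with 50 μg/cm^2 compound in 90:10 acetone-water, eight wells per treatment. Held at 25° C., 14:10 light-dark for five to seven days. Percent mortality scored per well and averaged over the eight wells.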

Data set [4] has as its system Green Peach Aphid (Myzus persicae, MYZUPE) ("GPA"). Nature of the data set: Bioassays on GPA, foliar spray of infested cabbage seedlings. The conditions noted are these: 72 h, 200 ppm spray on cabbage seedlings, graded after three days, Abbott corrected % control, read-out: GPA % Control (or Mortality) rating. The method, then: Certain molecules disclosed in this document were tested against GPA using procedures described in the following example. In the reporting of the results, the “GPA Rating Table” was used (See Table Section).
Cabbage seedlings grown in 3-inch pots, with 2-3 small (3-5 cm) true leaves, were used as test substrate. The seedlings were infested with 20-50 GPA (wingless adult and nymph stages) one day prior to chemical application. Four pots with individual seedlings were used for each treatment. Test compounds (2 mg) were dissolved in 2 mL of acetone/methanol (1:1) solvent, forming stock solutions of 1000 ppm test compound. The stock solutions were diluted 5× with 0.025% Tween 20 in water to obtain the solution at 200 ppm test compound. A hand-held aspirator-type sprayer was used for spraying a solution to both sides of […] leaves until runoff. Reference plants (solvent check) were sprayed with the diluent only containing 20% by volume of acetone/methanol (1:1) solvent. Treated plants were held in a holding room for three days at approximately 25° C. and ambient relative humidity (RH) prior to grading. Evaluation was conducted by counting the number of live aphids per plant under a microscope. Percent Control was measured by using Abbott's correction formula (W. S. Abbott, “A Method of Computing the Effectiveness of an Insecticide” J. Econ. Entomol. 18 (1925), pp. 265-267) as follows. Corrected % Control=100*(X−Y)/X • where • X=No. of live aphids on solvent check plants and • Y=No. of live aphids on treated plants

Consider `CCc1ccccc1-c1cccnc1NC(=O)Nc1ccc(-c2ncn(-c3ccc(OC(F)(F)F)cc3)n2)cc1` [F16, 1-(3-(2-Ethylphenyl)pyridin-2-yl)-3-(4-(1-(4-(trifluoromethoxy)phenyl)-1H-1,2,4-triazol-3-yl)phenyl)urea], for which the mortality at 50 µg/cm2 in data set [1] and in data set [3] was 50 to 100% each time. Besides, the “YFM % Control (or Mortality) rating” value in data set [2] was “D (No activity noticed in this bioassay)”. Further, in data set [4], the mortality at 200 ppm was in the range of 0 to 80%.
Regarding `CC(C)CC(C)c1ccccc1NC(=O)Nc1ccc(-c2ncn(-c3ccc(OC(F)(F)F)cc3)n2)cc1` (centres unmarked) [F18, 1-(2-(4-methylpentan-2-yl)phenyl)-3-(4-(1-(4-(trifluoromethoxy)phenyl)-1H-1,2,4-triazol-3-yl)phenyl)urea], the mortality at 50 µg/cm2 in data set [1] and in data set [3] was 50 to 100% each time. In data set [2], the “YFM % Control (or Mortality) rating” value is given as “D (No activity noticed in this bioassay)”. Further, the mortality at 200 ppm in data set [4] worked out at 0%.
Turning to `CCc1ccccc1-c1cccnc1NC(=S)Nc1ccc(-c2ncn(-c3ccc(OC(F)(F)F)cc3)n2)cc1` [F20, 1-(3-(2-Ethylphenyl)pyridin-2-yl)-3-(4-(1-(4-(trifluoromethoxy)phenyl)-1H-1,2,4-triazol-3-yl)phenyl)thiourea], the mortality at 50 µg/cm2 lay within 0 to 50% in data set [1] and 50 to 100% in data set [3]. Moreover, the “YFM % Control (or Mortality) rating” value in data set [2] was “D (No activity noticed in this bioassay)”. Further, in data set [4], the mortality at 200 ppm lay within 0 to 80%.
The like results for `CSc1ccccc1-c1cccnc1NC(=S)Nc1ccc(-c2ncn(-c3ccc(OC(F)(F)F)cc3)n2)cc1` [F22, 1-(3-(2-(Methylthio)phenyl)pyridin-2-yl)-3-(4-(1-(4-(trifluoromethoxy)phenyl)-1H-1,2,4-triazol-3-yl)phenyl)thiourea] were, in that order, 0 to 50%, 50 to 100%, “D (No activity noticed in this bioassay)” and 0 to 80%.
Taken in the same sequence, the figures for `CC(C)c1ccccc1-c1ccccc1NC(=S)Nc1ccc(-c2ncn(-c3ccc(OC(F)(F)F)cc3)n2)cc1` [F28, 1-(2′-isopropyl-[1,1′-biphenyl]-2-yl)-3-(4-(1-(4-(trifluoromethoxy)phenyl)-1H-1,2,4-triazol-3-yl)phenyl)thiourea] were 0 to 50%, 50 to 100%, “D (No activity noticed in this bioassay)” and 0 to 80%.
Taken in the same sequence, the figures for `O=C(Nc1ccc(-c2ncn(-c3ccc(OC(F)(F)F)cc3)n2)cc1)Nc1ccccc1-c1ccccc1` [F31, 1-([1,1′-biphenyl]-2-yl)-3-(4-(1-(4-(trifluoromethoxy)phenyl)-1H-1,2,4-triazol-3-yl)phenyl)urea] were 50 to 100%, 50 to 100%, “A (80-100)” and 0 to 80%.
Regarding `CCc1ccccc1-c1ccccc1NC(=O)Nc1ccc(-c2ncn(-c3ccc(OC(F)(F)F)cc3)n2)cc1` [F35, 1-(2′-Ethyl-[1,1′-biphenyl]-2-yl)-3-(4-(1-(4-(trifluoromethoxy)phenyl)-1H-1,2,4-triazol-3-yl)phenyl)urea], the mortality at 50 µg/cm2 in data set [1] and in data set [3] was 50 to 100% each time. In data set [2], the “YFM % Control (or Mortality) rating” value was “A (80-100)”. Further, in data set [4], the mortality at 200 ppm came to 0%.
With `CCCc1ccccc1NC(=O)Nc1ccc(-c2ncn(-c3ccc(OC(F)(F)F)cc3)n2)cc1` [F37, 1-(2-propylphenyl)-3-(4-(1-(4-(trifluoromethoxy)phenyl)-1H-1,2,4-triazol-3-yl)phenyl)urea], the figures for the mortality at 50 µg/cm2 in data set [1] and in data set [3] were 0 to 50% and 50 to 100%, respectively. Also, in data set [2], the “YFM % Control (or Mortality) rating” value is recorded as “B (More than 0 - Less than 80)”. The mortality at 200 ppm in data set [4] was 0 to 80%.
The like results for `CC(C)(C)c1ccccc1NC(=O)Nc1ccc(-c2ncn(-c3ccc(OC(F)(F)F)cc3)n2)cc1` [F38, 1-(2-(Tert-butyl)phenyl)-3-(4-(1-(4-(trifluoromethoxy)phenyl)-1H-1,2,4-triazol-3-yl)phenyl)urea] were, in that order, 0 to 50%, 50 to 100%, “D (No activity noticed in this bioassay)” and 0%.
Consider `CCc1ccccc1NC(=O)Nc1ccc(-c2ncn(-c3ccc(OC(F)(F)F)cc3)n2)cc1` [F46, 1-(2-Ethylphenyl)-3-(4-(1-(4-(trifluoromethoxy)phenyl)-1H-1,2,4-triazol-3-yl)phenyl)urea], for which the mortality at 50 µg/cm2 in data set [1] and in data set [3] was 50 to 100% in each case. Moreover, in data set [2], the “YFM % Control (or Mortality) rating” value is recorded as “B (More than 0 - Less than 80)”. Further, the mortality at 200 ppm in data set [4] fell in the range of 0 to 80%.
Turning to `CSc1ccccc1-c1ccccc1NC(=O)Nc1ccc(-c2ncn(-c3ccc(OC(F)(F)F)cc3)n2)cc1` [F60, 1-(2′-(Methylthio)-[1,1′-biphenyl]-2-yl)-3-(4-(1-(4-(trifluoromethoxy)phenyl)-1H-1,2,4-triazol-3-yl)phenyl)urea], the mortality at 50 µg/cm2 in data set [1] and in data set [3] was 50 to 100% throughout. For the same compound, the “YFM % Control (or Mortality) rating” value in data set [2] was “A (80-100)”. Further, in data set [4], the mortality at 200 ppm fell in the range of 0 to 80%.
As for `CC(C)c1ccccc1-c1ccccc1NC(=O)Nc1ccc(-c2ncn(-c3ccc(OC(F)(F)F)cc3)n2)cc1` [F63, 1-(2′-Isopropyl-[1,1′-biphenyl]-2-yl)-3-(4-(1-(4-(trifluoromethoxy)phenyl)-1H-1,2,4-triazol-3-yl)phenyl)urea], the mortality at 50 µg/cm2 in data set [1] and in data set [3] was 50 to 100% throughout. The “YFM % Control (or Mortality) rating” value in data set [2] is reported as “D (No activity noticed in this bioassay)”. Further, the mortality at 200 ppm in data set [4] was 0 to 80%.
As to `O=C(Nc1ccc(-c2ncn(-c3ccc(OC(F)(F)F)cc3)n2)cc1)Nc1ncccc1-c1cccnc1` [F66, 1-([3,3′-Bipyridin]-2-yl)-3-(4-(1-(4-(trifluoromethoxy)phenyl)-1H-1,2,4-triazol-3-yl)phenyl)urea], the mortality at 50 µg/cm2 in data set [1] and in data set [3] was 50 to 100% in each case. In data set [2], the “YFM % Control (or Mortality) rating” value is on record as “D (No activity noticed in this bioassay)”. In data set [4], the mortality at 200 ppm was 0 to 80%.
With `O=C(Nc1ccc(-c2ncn(-c3ccc(OC(F)(F)C(F)(F)F)cc3)n2)cc1)Nc1ccccc1-c1ccccc1` [F68, 1-([1,1′-biphenyl]-2-yl)-3-(4-(1-(4-(perfluoroethoxy)phenyl)-1H-1,2,4-triazol-3-yl)phenyl)urea], the mortality at 50 µg/cm2 in data set [1] and in data set [3] was 50 to 100% in each case. Besides, the “YFM % Control (or Mortality) rating” value in data set [2] is on record as “A (80-100)”. For the same compound, the mortality at 200 ppm in data set [4] lay in the range of 0 to 80%.
For `O=C(Nc1ccc(-c2ncn(-c3ccc(OC(F)(F)F)cc3)n2)cc1)Nc1ccccc1N1CCOCC1` [F69, 1-(2-Morpholinophenyl)-3-(4-(1-(4-(trifluoromethoxy)phenyl)-1H-1,2,4-triazol-3-yl)phenyl)urea], the mortality at 50 µg/cm2 in data set [1] and in data set [3] was 50 to 100% each time. Besides, the “YFM % Control (or Mortality) rating” value in data set [2] is “A (80-100)”. The mortality at 200 ppm in data set [4] was 0%.
With `Cc1ccccc1-c1ccccc1NC(=O)NCCCc1ccc(-c2ncn(-c3ccc(OC(F)(F)F)cc3)n2)cc1` [FA1, 1-(2′-Methyl-[1,1′-biphenyl]-2-yl)-3-(3-(4-(1-(4-(trifluoromethoxy)phenyl)-1H-1,2,4-triazol-3-yl)phenyl)propyl)urea], the mortality at 50 µg/cm2 was 0% in data set [1] and 50 to 100% in data set [3]. For the same compound, the “YFM % Control (or Mortality) rating” value in data set [2] is recorded as “A (80-100)”. For the same compound, the mortality at 200 ppm in data set [4] was found to be 0%.
For `Cc1ccccc1-c1cccc(NC(=O)NCCCc2ccc(-c3ncn(-c4ccc(OC(F)(F)F)cc4)n3)cc2)c1` [FA2, 1-(2′-Methyl-[1,1′-biphenyl]-3-yl)-3-(3-(4-(1-(4-(trifluoromethoxy)phenyl)-1H-1,2,4-triazol-3-yl)phenyl)propyl)urea], the mortality at 50 µg/cm2 in data set [1] and in data set [3] was 0% in each case. For the same compound, in data set [2], the “YFM % Control (or Mortality) rating” value was “D (No activity noticed in this bioassay)”. Moreover, the mortality at 200 ppm in data set [4] was determined as 0%.
